Several values for one entry are separate records, joined by “and”; a condition that tells them apart may be missing. Identical values can stand only once. Toxic doses and inconclusive results are not listed.

In this assay the test system is CD2F1 mice, L1210 leukemia ip, survival T/C. The assay is described as follows: NCI In Vivo Anticancer Drug Screen. Data for tumor model L1210 Leukemia (intraperitoneal) in CD2F1 (CDF1) mice. The following applies: higher = longer survival. The method, boiled down: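 Vehicle-treated tumor-bearing mice served as controls (C) for compound-treated mice (T). Reported figure is T divided by C.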

The mark [1] stands for this setting: endpoint: mean survival time, dose: 25.0 mg/kg/injection, schedule: Q01DX009 (ip), vehicle: saline with Tween-80.
Setting [2] is: endpoint: mean survival time, dose: 50.0 mg/kg/injection, schedule: Q01DX009 (ip), vehicle: saline with Tween-80.
[3] abbreviates: endpoint: mean survival time, dose: 100.0 mg/kg/injection, schedule: Q04DX003 (ip), vehicle: saline with Tween-80.
[4] abbreviates: endpoint: mean survival time, dose: 200.0 mg/kg/injection, schedule: Q04DX003 (ip), vehicle: saline with Tween-80.
Where [5] appears, read: endpoint: mean survival time, dose: 400.0 mg/kg/injection, schedule: Q04DX003 (ip), vehicle: saline with Tween-80.
[6] abbreviates: endpoint: mean survival time, dose: 100.0 mg/kg/injection, schedule: Q04DX002 (ip), vehicle: saline with Tween-80.
Where [7] appears, read: endpoint: mean survival time, dose: 200.0 mg/kg/injection, schedule: Q04DX002 (ip), vehicle: saline with Tween-80.
Where [8] appears, read: endpoint: mean survival time, dose: 400.0 mg/kg/injection, schedule: Q04DX002 (ip), vehicle: saline with Tween-80.

Turning to `ClC1=C(Cl)C2(Cl)C=CC1(Cl)C2(Cl)Cl`, the T/C was 97 % of control under setting [1], 90 % of control under setting [2] and 105 % of control under setting [3].
As to `Cc1cn(C2CC(O)C(CO)O2)c(=O)nc1NCC12CC3CC(CC(C3)C1)C2` (stereo unspecified), the T/C (endpoint: median survival time, dose: 12.5 mg/kg/injection, schedule: Q01DX005 (ip), vehicle: distilled water + Tween-80) is 105 % of control; the T/C (endpoint: median survival time, dose: 25.0 mg/kg/injection, schedule: Q01DX005 (ip), vehicle: distilled water + Tween-80) is 104 % of control; the T/C (endpoint: median survival time, dose: 50.0 mg/kg/injection, schedule: Q01DX005 (ip), vehicle: distilled water + Tween-80) was 102 % of control; the T/C (endpoint: median survival time, dose: 100.0 mg/kg/injection, schedule: Q01DX005 (ip), vehicle: distilled water + Tween-80) is 94 % of control.
Turning to `O=NN(CCCl)C(=S)NC1CCCCC1`, the T/C (endpoint: mean survival time, dose: 6.25 mg/kg/injection, schedule: Q01DX001 (ip), vehicle: other) is 104 % of control; the T/C (endpoint: mean survival time, dose: 12.5 mg/kg/injection, schedule: Q01DX001 (ip), vehicle: other) is 211 % of control; the T/C (endpoint: mean survival time, dose: 25.0 mg/kg/injection, schedule: Q01DX001 (ip), vehicle: other) is 246 % of control and 403 % of control; the T/C (endpoint: mean survival time, dose: 50.0 mg/kg/injection, schedule: Q01DX001 (ip), vehicle: other) is 295 % of control and 523 % of control.
For `COC1OC2COc3ccccc3OC2C(NC(=O)Oc2ccccc2)C1O` (stereo unspecified), the T/C is, setting by setting: (endpoint: mean survival time, dose: 100.0 mg/kg/injection, schedule: Q01DX001 (ip), vehicle: saline with Tween-80) 94 % of control; (endpoint: mean survival time, dose: 200.0 mg/kg/injection, schedule: Q01DX001 (ip), vehicle: saline with Tween-80) 94 % of control; (endpoint: mean survival time, dose: 400.0 mg/kg/injection, schedule: Q01DX001 (ip), vehicle: saline with Tween-80) 91 % of control.
For `CS(=O)(=O)Nc1ccc(Nc2c3ccccc3nc3cc(N)ccc23)cc1`, the T/C (endpoint: mean survival time, dose: 1.5 mg/kg/injection, schedule: Q01DX001 (ip), vehicle: saline) is 160 % of control; the T/C (endpoint: mean survival time, dose: 3.0 mg/kg/injection, schedule: Q01DX001 (ip), vehicle: saline) was 162 % of control; the T/C (endpoint: mean survival time, dose: 3.0 mg/kg/injection, schedule: Q01DX009 (ip), vehicle: saline) was 152 % of control; the T/C (endpoint: mean survival time, dose: 5.0 mg/kg/injection, schedule: Q01DX009 (ip), vehicle: saline) is 114 % of control; the T/C (endpoint: mean survival time, dose: 12.0 mg/kg/injection, schedule: Q01DX001 (ip), vehicle: saline) is 175 % of control.
Take `Cc1cc(O)c(C(C)C)cc1N(C)C` (tested in a mixture with another compound): the T/C (endpoint: mean survival time, dose: 0.13 mg/kg/injection, schedule: Q01DX009 (ip), vehicle: saline) is 100 % of control; the T/C (endpoint: mean survival time, dose: 0.25 mg/kg/injection, schedule: Q01DX009 (ip), vehicle: saline) is 106 % of control; the T/C (endpoint: mean survival time, dose: 0.25 mg/kg/injection, schedule: Q04DX003 (ip), vehicle: saline) was 110 % of control; the T/C (endpoint: mean survival time, dose: 0.5 mg/kg/injection, schedule: Q01DX001 (ip), vehicle: saline) was 97 % of control; the T/C (endpoint: mean survival time, dose: 0.5 mg/kg/injection, schedule: Q01DX009 (ip), vehicle: saline) was 93 % of control; the T/C (endpoint: mean survival time, dose: 0.5 mg/kg/injection, schedule: Q04DX003 (ip), vehicle: saline) is 87 % of control. The T/C (endpoint: mean survival time, dose: 1.0 mg/kg/injection, schedule: Q01DX001 (ip), vehicle: saline) is 97 % of control.
For the compound `CCCCCCCCCCCCCCCC(=O)N(CCCN)c1ccc(N(CCCN)C(=O)CCCCCCCCCCCCCCC)cc1`, the T/C runs as follows: under setting [3], 98 % of control; under setting [4], 98 % of control; under setting [5], 97 % of control.
Regarding `CC[CH2][Sn]([Cl])([Cl])[CH2]CC.Oc1ccccc1C=NCCN=Cc1ccccc1O`, the T/C was 100 % of control (endpoint: mean survival time, dose: 0.62 mg/kg/injection, schedule: Q01DX009 (ip), vehicle: gum acacia); 100 % of control (endpoint: mean survival time, dose: 1.25 mg/kg/injection, schedule: Q01DX009 (ip), vehicle: gum acacia); 97 % of control and 103 % of control (endpoint: mean survival time, dose: 2.5 mg/kg/injection, schedule: Q01DX009 (ip), vehicle: gum acacia); 103 % of control (endpoint: mean survival time, dose: 3.3 mg/kg/injection, schedule: Q01DX009 (ip), vehicle: saline with Tween-80); 94 % of control (endpoint: mean survival time, dose: 5.0 mg/kg/injection, schedule: Q01DX001 (ip), vehicle: saline with Tween-80); 104 % of control and 108 % of control (endpoint: mean survival time, dose: 5.0 mg/kg/injection, schedule: Q01DX009 (ip), vehicle: gum acacia). In addition, the T/C by setting is: (endpoint: mean survival time, dose: 5.0 mg/kg/injection, schedule: Q01DX009 (ip), vehicle: saline with Tween-80) 92 % of control; (endpoint: mean survival time, dose: 7.5 mg/kg/injection, schedule: Q01DX009 (ip), vehicle: saline with Tween-80) 95 % of control; (endpoint: mean survival time, dose: 10.0 mg/kg/injection, schedule: Q01DX001 (ip), vehicle: saline with Tween-80) 95 % of control; (endpoint: mean survival time, dose: 20.0 mg/kg/injection, schedule: Q01DX001 (ip), vehicle: saline with Tween-80) 96 % of control.
In the case of `COc1ccc(C(=O)c2ncccc2C)cc1OC`, the T/C is 94 % of control (endpoint: mean survival time, dose: 12.5 mg/kg/injection, schedule: Q01DX009 (ip), vehicle: water); 95 % of control (endpoint: mean survival time, dose: 25.0 mg/kg/injection, schedule: Q01DX009 (ip), vehicle: water); 94 % of control (endpoint: mean survival time, dose: 50.0 mg/kg/injection, schedule: Q01DX009 (ip), vehicle: water); 94 % of control (endpoint: mean survival time, dose: 100.0 mg/kg/injection, schedule: Q01DX009 (ip), vehicle: water); 88 % of control (endpoint: mean survival time, dose: 200.0 mg/kg/injection, schedule: Q01DX009 (ip), vehicle: water).
`CCCSCCCC(=O)O`: the T/C (endpoint: mean survival time, dose: 100.0 mg/kg/injection, schedule: Q04DX003 (ip), vehicle: Klucel (hydroxypropylcellulose) (HPC)) is 95 % of control; the T/C (endpoint: mean survival time, dose: 200.0 mg/kg/injection, schedule: Q04DX003 (ip), vehicle: Klucel (hydroxypropylcellulose) (HPC)) is 98 % of control; the T/C (endpoint: mean survival time, dose: 400.0 mg/kg/injection, schedule: Q04DX003 (ip), vehicle: Klucel (hydroxypropylcellulose) (HPC)) was 103 % of control.
Take `N#CSCc1ccccc1Cl`: the T/C reads like this: (endpoint: mean survival time, dose: 2.5 mg/kg/injection, schedule: Q01DX009 (ip), vehicle: saline sonified) 91 % of control; (endpoint: mean survival time, dose: 5.0 mg/kg/injection, schedule: Q01DX009 (ip), vehicle: saline sonified) 96 % of control; (endpoint: mean survival time, dose: 5.0 mg/kg/injection, schedule: Q04DX003 (ip), vehicle: saline with Tween-80) 95 % of control; (endpoint: mean survival time, dose: 10.0 mg/kg/injection, schedule: Q01DX009 (ip), vehicle: saline sonified) 96 % of control; (endpoint: mean survival time, dose: 10.0 mg/kg/injection, schedule: Q04DX003 (ip), vehicle: saline with Tween-80) 86 % of control.
`CC(CC1CC=CCC1)C(=O)c1ccccc1` (stereo unspecified): the T/C is, setting by setting: (endpoint: mean survival time, dose: 50.0 mg/kg/injection, schedule: Q04DX002 (ip), vehicle: saline with Tween-80) 100 % of control; under setting [6], 100 % of control; under setting [7], 93 % of control; under setting [8], 89 % of control.
As to `CC(=O)OC1CCCC2=CC(=O)CCC21C` (stereo unspecified), the T/C reads like this: under setting [3], 96 % of control; under setting [4], 92 % of control.
As for `O=C1N(CCO)CCN1/N=C/c1ccc([N+](=O)[O-])o1`, the T/C was 93 % of control under setting [3], 102 % of control under setting [4] and 95 % of control under setting [5].
Turning to `CCC[CH2][Sn]([CH2]CCC)([O]C(=O)COc1ccc(C(=O)c2ccccc2)c(O)c1)[O]C(=O)COc1ccc(C(=O)c2ccccc2)c(O)c1`, the T/C runs as follows: (endpoint: mean survival time, dose: 1.56 mg/kg/injection, schedule: Q01DX001 (ip), vehicle: saline with Tween-80) 95 % of control; (endpoint: mean survival time, dose: 3.13 mg/kg/injection, schedule: Q01DX001 (ip), vehicle: saline with Tween-80) 98 % of control; (endpoint: mean survival time, dose: 6.25 mg/kg/injection, schedule: Q01DX001 (ip), vehicle: saline with Tween-80) 98 % of control; (endpoint: mean survival time, dose: 12.5 mg/kg/injection, schedule: Q01DX001 (ip), vehicle: saline with Tween-80) 105 % of control.
With `Cc1ccc(NC(=O)c2cccc(C(=O)Nc3ccc(C)cc3C)c2)c(C)c1`, the T/C is, setting by setting: (endpoint: mean survival time, dose: 12.5 mg/kg/injection, schedule: Q01DX009 (ip), vehicle: saline with Tween-80) 94 % of control; under setting [1], 90 % of control; under setting [2], 89 % of control.
Regarding `O=C(Nc1ccccc1)OCCc1c2ccccc2nc2ccccc12`, the T/C by setting is: under setting [6], 94 % of control; under setting [7], 94 % of control; under setting [8], 90 % of control and 97 % of control.

These data come from PubChem BioAssay AID256 (DTP/NCI, 2004).
